Assay results: patent US20260130933A1, “PHARMACEUTICAL COMPOSITION FOR PREVENTION OR TREATMENT OF NEPHROPATHY AND/OR DIABETES MELLITUS, COMPRISING ENAVOGLIFLOZIN” (DAEWOONG PHARMACEUTICAL CO., LTD., priority 2022, published 2026)

Experiment: Example 2: phase 3 trial, enavogliflozin 0.3 mg vs dapagliflozin 10 mg once a day for 24 weeks added to metformin in patients with type 2 diabetes (same efficacy, exploratory and safety endpoints)
Format: in vivo, human
Protocol: Subjects who met the inclusion/exclusion criteria were administered a placebo of the clinical trial drug under single-blind (subject blinding) conditions during a 2-week run-in period while continuing to receive metformin. […] The randomized subjects were administered two tablets of the clinical trial drug for each administration group once a day, and then visited the institution at weeks 6, 12, 18, and 24 during the 24-week administration period to conduct efficacy and safety evaluations.
• 1. Change in HbA1c at week 24 after administration of clinical trial drug compared to Visit 2 (randomization)
• 1. Change in HbA1c at each time point of weeks 6, 12, and 18 after administration of clinical trial drug compared to Visit 2 (randomization) • 2. Change in FPG at each time point of weeks 6, 12, 18, and 24 after administration of clinical trial drug compared to Visit 2 (randomization) • 3. Proportion of subjects achieving HbA1c<7% at each time point of weeks 6, 12, 18, and 24 after administration of clinical trial drug • 4. Proportion of subjects achieving HbA1c<6.5% at each time point of weeks 6, 12, 18, and 24 after administration of clinical trial drug • 5. Proportion of subjects achieving therapeutic response (HbA1c change (HbA1c at Visit 2-HbA1c at each evaluation time point)>0.5% or HbA1c<7% at each evaluation time point compared to Visit 2 (randomization)) at each time point of weeks 6, 12, 18 and 24 after administration of clinical trial drug
• 1. Change in fasting c-peptide at each time point of weeks 6, 12, 18, and 24 after administration of clinical trial drug compared to Visit 2 (randomization) • 2. Change in body weight at each time point of weeks 6, 12, 18, and 24 after administration of clinical trial drug compared to Visit 2 (randomization) • 3. Change in fasting lipid concentration (total cholesterol, LDL-C, HDL-C, and triglycerides) at each time point of weeks 6, 12, 18, and 24 after administration of clinical trial drug compared to Visit 2 (randomization) • 4. Changes in systolic or diastolic blood pressure at each time point of weeks 6, 12, 18, and 24 after administration of clinical trial drug compared to Visit 2 (randomization) • 5. Changes in β-cell function and insulin resistance measured by HOMA-β and HOMA-IR at each time point of weeks 6, 12, 18, and 24 after administration of clinical trial drug compared to Visit 2 (randomization) • 6. Changes in renal function-related indicators (UACR, UGCR) measured by UACR at each time point of weeks 6, 12, 18, and 24 after administration of clinical trial drug compared to Visit 2 (randomization) • 7. Changes in obesity-related indicators (adiponectin, leptin) at each time point of weeks 6, 12, 18, and 24 after administration of clinical trial drug compared to Visit 2 (randomization)

[1] = Week 12, mPPS1, enavogliflozin minus dapagliflozin
[2] = Week 12, mPPS2, enavogliflozin minus dapagliflozin
[3] = Week 18, PPS, enavogliflozin minus dapagliflozin

OC[C@H]1O[C@@H](c2cc(Cc3ccc(C4CC4)cc3)c(Cl)c3c2CCO3)[C@H](O)[C@@H](O)[C@@H]1O [Enavogliflozin, (2S,3R,4R,5S,6R)-2-(7-chloro-6 (4-cyclopropylbenzyl)-2,3-dihydrobenzofuran-4-yl)-6-(hydroxymethyl)tetrahydro-2H-pyran-3,4,5-triol]
HDL-C, Mean (SD) (Week 12, mPPS1): 53.08(10.89) mg/dL
HDL-C, Median (Week 12, mPPS1): 52.50 mg/dL
LDL-C change from baseline, ANCOVA LS mean (SE) (Week 12, mPPS1): 1.86(1.68) mg/dL
LDL-C change from baseline, Mean (SD) (Week 12, mPPS1): 0.78(16.26) mg/dL
LDL-C change from baseline, Median (Week 12, mPPS1): 1.00 mg/dL
LDL-C, Mean (SD) (Week 12, mPPS1): 87.58(30.26) mg/dL
LDL-C, Median (Week 12, mPPS1): 79.00 mg/dL
Triglycerides change from baseline, ANCOVA LS mean (SE) (Week 12, mPPS1): −7.53(4.80) mg/dL
Triglycerides change from baseline, Mean (SD) (Week 12, mPPS1): −5.00(57.85) mg/dL
Triglycerides change from baseline, Median (Week 12, mPPS1): 3.00 mg/dL
Triglycerides, Mean (SD) (Week 12, mPPS1): 116.23(59.46) mg/dL
Triglycerides, Median (Week 12, mPPS1): 100.00 mg/dL
HDL-C change from baseline, LS mean difference [1]: 0.06 mg/dL
LDL-C change from baseline, LS mean difference [1]: 1.30 mg/dL
triglycerides change from baseline, LS mean difference [1]: 2.57 mg/dL
Diastolic blood pressure change from baseline, ANCOVA LS mean (SE) (Week 12, mPPS2): −4.19 mmHg
Diastolic blood pressure change from baseline, Mean (SD) (Week 12, mPPS2): −4.33 mmHg
Diastolic blood pressure change from baseline, Median (Week 12, mPPS2): −4.00 mmHg
Diastolic blood pressure, Mean (SD) (Week 12, mPPS2): 72.66 mmHg
Diastolic blood pressure, Median (Week 12, mPPS2): 72.00 mmHg
Systolic blood pressure change from baseline, ANCOVA LS mean (SE) (Week 12, mPPS2): −5.86(1.04) mmHg
Systolic blood pressure change from baseline, Mean (SD) (Week 12, mPPS2): −6.42(9.73) mmHg
Systolic blood pressure change from baseline, Median (Week 12, mPPS2): −6.00 mmHg
Systolic blood pressure, Mean (SD) (Week 12, mPPS2): 123.29(13.73) mmHg
Systolic blood pressure, Median (Week 12, mPPS2): 123.00 mmHg
diastolic blood pressure change from baseline, LS mean difference [2]: 0.16 mmHg
systolic blood pressure change from baseline, LS mean difference [2]: 0.26 mmHg
Adiponectin change from baseline, ANCOVA LS mean (SE) (Week 18, PPS): 1.33 µg/mL
Adiponectin change from baseline, Mean (SD) (Week 18, PPS): 1.26 µg/mL
Adiponectin change from baseline, Median (Week 18, PPS): 1.14 µg/mL
Adiponectin, Mean (SD) (Week 18, PPS): 8.3 µg/mL
Adiponectin, Median (Week 18, PPS): 7.33 µg/mL
HOMA-IR change from baseline, ANCOVA LS mean (SE) (Week 18, PPS): −1.79
HOMA-IR change from baseline, Mean (SD) (Week 18, PPS): −1.58
HOMA-IR change from baseline, Median (Week 18, PPS): −0.94
HOMA-IR, Mean (SD) (Week 18, PPS): 1.86
HOMA-IR, Median (Week 18, PPS): 1.51
HOMA-β change from baseline, ANCOVA LS mean (SE) (Week 18, PPS): 10.97
HOMA-β change from baseline, Mean (SD) (Week 18, PPS): 10.63
HOMA-β change from baseline, Median (Week 18, PPS): 5.75
HOMA-β, Mean (SD) (Week 18, PPS): 56.39
HOMA-β, Median (Week 18, PPS): 40.45
Leptin change from baseline, ANCOVA LS mean (SE) (Week 18, PPS): -2.49 ng/mL
Leptin change from baseline, Mean (SD) (Week 18, PPS): -2.50 ng/mL
Leptin change from baseline, Median (Week 18, PPS): -1.32 ng/mL
Leptin, Mean (SD) (Week 18, PPS): 9.71 ng/mL
Leptin, Median (Week 18, PPS): 7.22 ng/mL
UACR change from baseline, ANCOVA LS mean (SE) (Week 18, PPS): -23.05 g/kg
UACR change from baseline, Mean (SD) (Week 18, PPS): -17480 mg/kg
UACR change from baseline, Median (Week 18, PPS): -0.70 g/kg
UACR, Mean (SD) (Week 18, PPS): 20320 mg/kg
UACR, Median (Week 18, PPS): 9.80 g/kg
UGCR change from baseline, ANCOVA LS mean (SE) (Week 18, PPS): 60.97 mg/mg
UGCR change from baseline, Mean (SD) (Week 18, PPS): 59.41 mg/mg
UGCR change from baseline, Median (Week 18, PPS): 57.54 mg/mg
UGCR, Mean (SD) (Week 18, PPS): 60.98 mg/mg
UGCR, Median (Week 18, PPS): 58.42 mg/mg
HOMA-IR change from baseline, LS mean difference [3]: −0.32
HOMA-β change from baseline, LS mean difference [3]: −2.53
UACR change from baseline, LS mean difference [3]: -10.10 g/kg
UGCR change from baseline, LS mean difference [3]: 18.25 mg/mg
leptin change from baseline, LS mean difference [3]: -1.26 ng/mL
HDL-C change from baseline, ANCOVA LS mean (SE) (Week 18, mPPS1): 2.46(0.66) mg/dL
HDL-C change from baseline, Mean (SD) (Week 18, mPPS1): 1.89(6.20) mg/dL
HDL-C change from baseline, Median (Week 18, mPPS1): 2.50 mg/dL
HDL-C, Mean (SD) (Week 18, mPPS1): 53.49(11.50) mg/dL
HDL-C, Median (Week 18, mPPS1): 52.50 mg/dL
LDL-C change from baseline, ANCOVA LS mean (SE) (Week 18, mPPS1): 1.42(1.86) mg/dL
LDL-C change from baseline, Mean (SD) (Week 18, mPPS1): 0.50(14.20) mg/dL
LDL-C change from baseline, Median (Week 18, mPPS1): -1.00 mg/dL
